Our source for the IC50 values is patent publication US8871767B2, “2-arylimidazo[1,2-B]pyridazine, 2-phenylimidazo[1,2-A]pyridine, and 2-phenylimidazo[1,2-A]pyrazine derivatives” (Hengrui (USA) Ltd., priority 2010, dated 2014).

Read-outs that look alike come from different tables or passages of the source.

In assay [1] the test system is Hedgehog pathway activation on 10T1/2/Smo#3 cells (C3H10T1/2 cells transfected with human Smoothened receptor). The experiment in a line: Hedgehog pathway activation on 10T1/2/Smo#3 cells measured by ALP activity. It is filed as cell-based. The conditions noted are these: Mus musculus, C3H 10T1/2, 10T1/2/Smo#3 cells. The gist of the method:
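Inhibition of alkaline phosphatase induction, read fluorometrically from 4-methylumbelliferyl phosphate conversion, gave IC50 values; CellTiter-Blue tracked viability in parallel. Cells were the human Smo-transfected 10T1/2/Smo#3 pool, stimulated by 10-20% hShh conditioned medium or the Smo agonist SAG (500 nM).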

For assay [2], the system named is Hedgehog pathway activation (GLi-luciferase reporter) in Shh Light II reporter cells. The assay can be described thus: Hedgehog pathway activation on Shh Light II reporter cells measured by luciferase activity. The class given is cell-based. To be noted: Mus musculus, Shh Light II. The method in brief: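 Shh Light II reporter cells carrying a hedgehog-responsive GLi-luciferase reporter were stimulated either with 500 nM SAG, a direct Smoothened agonist, or with conditioned media containing human Sonic Hedgehog (hShh). Test compounds were evaluated for blocking this pathway activation, quantified by luciferase activity. Cell viability was monitored in parallel with the Celltiter-Blue® assay.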

Where [3] appears, read: hShh activation, ALP activity, read-out: 10T1/2/Smo#3 ALP activity (hShh Activation).
The mark [4] stands for this setting: measured by ALP activity, read-out: ALP (IC50, inhibition of Hedgehog pathway activation).
Where [5] appears, read: SAG activation (500 nM SAG), read-out: Shh Light II luciferase activity (SAG activation).
[6] abbreviates: hShh activation, read-out: Shh (IC50, inhibition of Hedgehog pathway activation).
[7] abbreviates: hShh activation, read-out: Shh Light II luciferase activity (hShh activation).

Take `CCOC(=O)CCCCCOc1ccc(-c2ccc3nc(-c4ccc(C)c(NC(=O)C(C)(C)C)c4)cn3n2)c(C(F)(F)F)c1` [Example 412, ethyl 6-(4-(2-(4-methyl-3-pivalamidophenyl)imidazo[1,2-b]pyridazin-6-yl)-3-(trifluoromethyl)phenoxy)hexanoate]: the IC50 in assay [1] (setting [3]) was 300 to 3000 nM; in assay [1] (setting [4]) it was 665 nM; in assay [2] (setting [5]), 300 to 3000 nM; in assay [2] (setting [6]), 225 nM; in assay [2] (setting [7]) it was less than 300 nM.

Consider `CCOC(=O)CCCCCCOc1ccc(-c2ccc3nc(-c4ccc(C)c(NC(=O)C(C)(C)C)c4)cn3n2)c(C(F)(F)F)c1` [Example 413, ethyl 7-(4-(2-(4-methyl-3-pivalamidophenyl)imidazo[1,2-b]pyridazin-6-yl)-3-(trifluoromethyl)phenoxy)heptanoate], for which the IC50 in assay [1] (setting [4]) came to 548 nM; in assay [2] (setting [6]), 318 nM.

With `Cc1ccc(-c2cn3nc(-c4ccc(OCCCCCCC(=O)NO)cc4C(F)(F)F)ccc3n2)cc1NC(=O)C(C)(C)C` [Example 417, N-hydroxy-7-(4-(2-(4-methyl-3-pivalamidophenyl)imidazo[1,2-b]pyridazin-6-yl)-3-(trifluoromethyl)phenoxy)heptanamide], the IC50 is 3000 to 30000 nM in assay [1] (setting [3]), 300 to 3000 nM in assay [2] (setting [5]), 380 nM in assay [2] (setting [6]) and 300 to 3000 nM in assay [2] (setting [7]).

Take `CCOC(=O)CCCCCOc1cccc(-c2ccc3nc(-c4ccc(C)c(NC(=O)C(C)(C)C)c4)cn3n2)c1C(F)(F)F` [Example 422, ethyl 6-(3-(2-(4-methyl-3-pivalamidophenyl)imidazo[1,2-b]pyridazin-6-yl)-2-(trifluoromethyl)phenoxy)hexanoate]: the IC50 in assay [1] (setting [4]) was found to be 312 nM; in assay [2] (setting [6]) it was 869 nM.

Consider `CCOC(=O)CCCCCCOc1cccc(-c2ccc3nc(-c4ccc(C)c(NC(=O)C(C)(C)C)c4)cn3n2)c1C(F)(F)F` [Example 423, ethyl 7-(3-(2-(4-methyl-3-pivalamidophenyl)imidazo[1,2-b]pyridazin-6-yl)-2-(trifluoromethyl)phenoxy)heptanoate], for which the IC50 in assay [1] (setting [4]) is 265 nM; in assay [2] (setting [6]) it was 1560 nM.

Take `CCOC(=O)CCCCCOc1ccc(C(F)(F)F)c(-c2ccc3nc(-c4ccc(C)c(NC(=O)C(C)(C)C)c4)cn3n2)c1` [Example 424, ethyl 6-(3-(2-(4-methyl-3-pivalamidophenyl)imidazo[1,2-b]pyridazin-6-yl)-4-(trifluoromethyl)phenoxy)hexanoate]: the results for the IC50 in assay [1] (setting [4]) and in assay [2] (setting [6]) were 4100 nM and 7460 nM, respectively.

For `CCOC(=O)CCCCCCOc1ccc(C(F)(F)F)c(-c2ccc3nc(-c4ccc(C)c(NC(=O)C(C)(C)C)c4)cn3n2)c1` [Example 425, ethyl 7-(3-(2-(4-methyl-3-pivalamidophenyl)imidazo[1,2-b]pyridazin-6-yl)-4-(trifluoromethyl)phenoxy)heptanoate], the IC50 in assay [1] (setting [4]) stood at 239 nM; in assay [2] (setting [6]) it was 86 nM.

As for `CCOC(=O)CCCOc1cccc(-c2ccc3nc(-c4ccc(C)c(NC(=O)C(C)(C)C)c4)cn3n2)c1C(F)(F)F` [Example 426, ethyl 4-(3-(2-(4-methyl-3-pivalamidophenyl)imidazo[1,2-b]pyridazin-6-yl)-2-(trifluoromethyl)phenoxy)butanoate], the figures for the IC50 in assay [1] (setting [4]) and in assay [2] (setting [6]) were 707 nM and 170 nM, respectively.

On to `CCOC(=O)CCCCOc1ccc(-c2ccc3nc(-c4ccc(C)c(NC(=O)C(C)(C)C)c4)cn3n2)c(C(F)(F)F)c1` [Example 427, ethyl 5-(4-(2-(4-methyl-3-pivalamidophenyl)imidazo[1,2-b]pyridazin-6-yl)-3-(trifluoromethyl)phenoxy)pentanoate], for which the IC50 was 176 nM in assay [1] (setting [4]) and 27 nM in assay [2] (setting [6]).

Regarding `CCOC(=O)CCCOc1ccc(-c2ccc3nc(-c4ccc(C)c(NC(=O)C(C)(C)C)c4)cn3n2)c(C(F)(F)F)c1` [Example 428, ethyl 4-(4-(2-(4-methyl-3-pivalamidophenyl)imidazo[1,2-b]pyridazin-6-yl)-3-(trifluoromethyl)phenoxy)butanoate], the IC50 was determined as 734 nM in assay [1] (setting [4]) and 78 nM in assay [2] (setting [6]).

`Cc1ccc(-c2cn3nc(-c4cccnc4C(F)(F)F)ccc3n2)cc1NC(=O)CCCCCCC(=O)NO` [Example 429, N^1-hydroxy-N^8-(2-methyl-5-(6-(2-(trifluoromethyl)pyridin-3-yl)imidazo[1,2-b]pyridazin-2-yl)phenyl)octanediamide]: the IC50 in assay [1] (setting [3]) was 300 to 3000 nM; in assay [1] (setting [4]), 1280 nM; in assay [2] (setting [5]) it was 300 to 3000 nM; in assay [2] (setting [6]), 167 nM; in assay [2] (setting [7]), 3000 to 30000 nM.

For `CCOC(=O)CCCOc1ccc(-c2ccc3nc(-c4ccc(C)c(NC(=O)C(C)(C)C)c4)cn3n2)c(C(F)(F)F)n1` [Example 432, ethyl 4-(5-(2-(4-methyl-3-pivalamidophenyl)imidazo[1,2-b]pyridazin-6-yl)-6-(trifluoromethyl)pyridin-2-yloxy)butanoate], the IC50 in assay [1] (setting [4]) came to 675 nM; in assay [2] (setting [6]) it was 121 nM.

As to `CCOC(=O)CCCCOc1ccc(C(F)(F)F)c(-c2ccc3nc(-c4ccc(C)c(NC(=O)C(C)(C)C)c4)cn3n2)c1` [Example 433, ethyl 5-(3-(2-(4-methyl-3-pivalamidophenyl)imidazo[1,2-b]pyridazin-6-yl)-4-(trifluoromethyl)phenoxy)pentanoate], the IC50 in assay [1] (setting [4]) amounted to 736 nM; in assay [2] (setting [6]), 193 nM.

Turning to `Cc1ccc(-c2cn3nc(-c4ccc(C(=O)NO)cc4C(F)(F)F)ccc3n2)cc1NC(=O)C(C)(C)C` [Example 437, N-hydroxy-4-(2-(4-methyl-3-pivalamidophenyl)imidazo[1,2-b]pyridazin-6-yl)-3-(trifluoromethyl)benzamide], the IC50 in assay [1] (setting [3]) was less than 300 nM; in assay [1] (setting [4]), 150 nM; in assay [2] (setting [5]) it was less than 300 nM; in assay [2] (setting [6]), 71 nM; in assay [2] (setting [7]) it was less than 300 nM.

Take `Cc1ccc(-c2cn3nc(-c4cccc(OCCCCCC(=O)NO)c4C(F)(F)F)ccc3n2)cc1NC(=O)C(C)(C)C` [Example 438, N-hydroxy-6-(3-(2-(4-methyl-3-pivalamidophenyl)imidazo[1,2-b]pyridazin-6-yl)-2-(trifluoromethyl)phenoxy)hexanamide]: the IC50 in assay [1] (setting [4]) turned out to be 2600 nM; in assay [2] (setting [6]), 1160 nM.

As to `Cc1ccc(-c2cn3nc(-c4cccc(OCC(=O)NO)c4C(F)(F)F)ccc3n2)cc1NC(=O)C(C)(C)C` [Example 439, N-(5-(6-(3-(2-(hydroxyamino)-2-oxoethoxy)-2-(trifluoromethyl)phenyl)imidazo[1,2-b]pyridazin-2-yl)-2-methylphenyl)pivalamide], the results for the IC50 in assay [1] (setting [4]) and in assay [2] (setting [6]) were 746 nM and 365 nM, respectively.

Turning to `Cc1ccc(-c2cn3nc(C4=CCC(C)(C)CC4)ccc3n2)cc1NC(=O)C(C)(C)C` [Example 444, N-(5-(6-(4,4-dimethylcyclohex-1-enyl)imidazo[1,2-b]pyridazin-2-yl)-2-methylphenyl)pivalamide], the IC50 in assay [1] (setting [4]) was 604 nM; in assay [2] (setting [6]), 1240 nM.

Turning to `Cc1ccc(-c2cn3nc(-c4cscn4)ccc3n2)cc1NC(=O)C(C)(C)C` [Example 445, N-(2-methyl-5-(6-(thiazol-4-yl)imidazo[1,2-b]pyridazin-2-yl)phenyl)pivalamide], the results for the IC50 in assay [1] (setting [4]) and in assay [2] (setting [6]) were 578 nM and 794 nM, respectively.

For `Cc1ccc(-c2cn3nc(-c4csc(N5CCOCC5)n4)ccc3n2)cc1NC(=O)C(C)(C)C` [Example 448, N-(2-methyl-5-(6-(2-morpholinothiazol-4-yl)imidazo[1,2-b]pyridazin-2-yl)phenyl)pivalamide], the results for the IC50 in assay [1] (setting [4]) and in assay [2] (setting [6]) were 643 nM and 1280 nM, respectively.

For the compound `Cc1ccc(-c2cn3nc(-c4ccc5nonc5c4)ccc3n2)cc1NC(=O)C(C)(C)C` [Example 449, N-(5-(6-(benzo[c][1,2,5]oxadiazol-5-yl)imidazo[1,2-b]pyridazin-2-yl)-2-methylphenyl)pivalamide], the figures for the IC50 in assay [1] (setting [4]) and in assay [2] (setting [6]) were 281 nM and 311 nM, respectively.

As to `Cc1ccc(-c2cn3nc(-c4cc(C#N)ccc4C)ccc3n2)cc1NC(=O)C(C)(C)C` [Example 450, N-(5-(6-(5-cyano-2-methylphenyl)imidazo[1,2-b]pyridazin-2-yl)-2-methylphenyl)pivalamide], the IC50 in assay [1] (setting [3]) was less than 300 nM; in assay [1] (setting [4]), 337 nM; in assay [2] (setting [5]), less than 300 nM; in assay [2] (setting [6]), 322 nM; in assay [2] (setting [7]), less than 300 nM.

As to `Cc1ccc(-c2cn3nc(-c4cccc(S(=O)(=O)N(C)C)c4)ccc3n2)cc1NC(=O)C(C)(C)C` [Example 451, N-(5-(6-(3-(N,N-dimethylsulfamoyl)phenyl)imidazo[1,2-b]pyridazin-2-yl)-2-methylphenyl)pivalamide], the results for the IC50 in assay [1] (setting [4]) and in assay [2] (setting [6]) were 1000 nM and 960 nM, respectively.

For the compound `CNC(=O)c1cccc(-c2ccc3nc(-c4ccc(C)c(NC(=O)C(C)(C)C)c4)cn3n2)c1` [Example 453, N-methyl-3-(2-(4-methyl-3-pivalamidophenyl)imidazo[1,2-b]pyridazin-6-yl)benzamide], the IC50 in assay [1] (setting [4]) was 751 nM; in assay [2] (setting [6]), 582 nM.

Regarding `C[C@@H]1CCCC[C@H]1Oc1ccc2nc(-c3ccc(C(F)(F)F)c(NC(=O)C(C)(C)C)c3)cn2n1` [Example 464, N-(5-(6-((1R,2R)-2-methylcyclohexyloxy)imidazo[1,2-b]pyridazin-2-yl)-2-(trifluoromethyl)phenyl)pivalamide], the IC50 in assay [1] (setting [4]) worked out at 400 nM; in assay [2] (setting [6]), 352 nM.
